Results from ChEMBL document CHEMBL4390688, “Accelerating the discovery of DGAT1 inhibitors through the application of parallel medicinal chemistry (PMC)” (Bioorg Med Chem Lett, 2019).
pIC50, pKi: −log10 of the molar value.

Tests used:
[1] = target: T1, Diacylglycerol O-acyltransferase 1 (Homo sapiens, UniProt O75907)
T1 sequence (O75907 whole entry): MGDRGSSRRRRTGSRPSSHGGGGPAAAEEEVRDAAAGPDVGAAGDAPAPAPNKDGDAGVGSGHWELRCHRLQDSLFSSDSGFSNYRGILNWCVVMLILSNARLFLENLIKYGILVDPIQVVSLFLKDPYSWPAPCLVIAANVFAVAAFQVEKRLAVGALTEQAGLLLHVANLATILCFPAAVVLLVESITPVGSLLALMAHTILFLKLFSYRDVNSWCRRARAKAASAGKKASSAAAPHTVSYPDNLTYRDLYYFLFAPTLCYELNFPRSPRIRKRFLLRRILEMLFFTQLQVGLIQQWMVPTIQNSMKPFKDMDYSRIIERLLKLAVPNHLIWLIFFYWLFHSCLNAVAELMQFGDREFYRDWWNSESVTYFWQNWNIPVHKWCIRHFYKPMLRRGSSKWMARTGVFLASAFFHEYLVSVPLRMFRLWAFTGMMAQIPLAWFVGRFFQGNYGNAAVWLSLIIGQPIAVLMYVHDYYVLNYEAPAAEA
Description: Inhibition of human DGAT1

[2] = target: Voltage-gated inwardly rectifying potassium channel KCNH2 (Homo sapiens, UniProt Q12809); assay: Inhibition of human ERG
Voltage-gated inwardly rectifying potassium channel KCNH2, sequence (Q12809 whole entry): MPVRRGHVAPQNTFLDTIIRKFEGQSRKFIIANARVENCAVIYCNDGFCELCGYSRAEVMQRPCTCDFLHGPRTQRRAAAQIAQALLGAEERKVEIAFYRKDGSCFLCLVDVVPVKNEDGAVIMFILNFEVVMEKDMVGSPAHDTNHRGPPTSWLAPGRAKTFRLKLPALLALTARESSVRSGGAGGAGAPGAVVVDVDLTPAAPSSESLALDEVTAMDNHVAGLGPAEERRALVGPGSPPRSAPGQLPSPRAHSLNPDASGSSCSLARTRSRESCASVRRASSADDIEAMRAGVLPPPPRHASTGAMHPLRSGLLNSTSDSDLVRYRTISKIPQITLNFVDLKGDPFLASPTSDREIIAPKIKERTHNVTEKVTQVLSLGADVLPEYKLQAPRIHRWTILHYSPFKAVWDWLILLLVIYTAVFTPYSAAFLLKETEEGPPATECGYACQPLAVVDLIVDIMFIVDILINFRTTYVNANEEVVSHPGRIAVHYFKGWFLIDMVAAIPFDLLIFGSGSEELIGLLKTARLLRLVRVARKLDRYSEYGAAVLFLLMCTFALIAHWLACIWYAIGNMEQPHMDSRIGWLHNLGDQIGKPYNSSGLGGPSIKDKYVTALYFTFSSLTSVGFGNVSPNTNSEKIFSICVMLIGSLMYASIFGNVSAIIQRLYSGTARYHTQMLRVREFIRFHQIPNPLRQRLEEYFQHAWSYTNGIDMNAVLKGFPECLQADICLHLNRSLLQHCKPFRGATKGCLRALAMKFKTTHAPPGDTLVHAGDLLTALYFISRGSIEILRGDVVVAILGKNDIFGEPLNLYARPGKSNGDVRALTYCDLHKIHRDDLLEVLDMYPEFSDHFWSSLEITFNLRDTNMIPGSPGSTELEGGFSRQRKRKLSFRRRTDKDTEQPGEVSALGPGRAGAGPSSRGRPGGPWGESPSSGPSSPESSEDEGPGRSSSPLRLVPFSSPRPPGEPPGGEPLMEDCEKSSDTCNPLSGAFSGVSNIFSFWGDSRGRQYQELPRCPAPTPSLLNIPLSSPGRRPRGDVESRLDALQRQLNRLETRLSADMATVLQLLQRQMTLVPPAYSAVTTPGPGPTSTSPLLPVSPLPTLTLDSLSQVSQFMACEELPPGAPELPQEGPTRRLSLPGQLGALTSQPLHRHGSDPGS

[3] = target: T2, Sterol O-acyltransferase 1 (Homo sapiens, UniProt P35610)
T2 sequence (P35610 whole entry): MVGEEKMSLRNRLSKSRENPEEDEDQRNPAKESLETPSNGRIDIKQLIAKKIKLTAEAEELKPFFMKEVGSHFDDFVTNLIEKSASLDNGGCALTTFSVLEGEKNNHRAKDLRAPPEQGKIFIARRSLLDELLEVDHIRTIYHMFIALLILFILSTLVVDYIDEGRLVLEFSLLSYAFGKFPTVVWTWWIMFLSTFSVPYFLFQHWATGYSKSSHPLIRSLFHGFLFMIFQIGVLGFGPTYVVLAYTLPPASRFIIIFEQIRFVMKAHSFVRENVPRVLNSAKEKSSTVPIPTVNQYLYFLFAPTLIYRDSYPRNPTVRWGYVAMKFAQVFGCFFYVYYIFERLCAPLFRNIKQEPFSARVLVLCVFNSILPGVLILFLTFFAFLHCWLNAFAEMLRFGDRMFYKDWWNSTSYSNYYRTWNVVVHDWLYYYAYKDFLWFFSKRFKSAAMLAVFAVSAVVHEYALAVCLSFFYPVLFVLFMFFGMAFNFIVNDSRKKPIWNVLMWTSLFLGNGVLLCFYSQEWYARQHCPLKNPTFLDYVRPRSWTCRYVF
Description: Inhibition of human ACAT1

[4] = Distribution coefficient, log D of compound; type: physicochemical; conditions: octanol/water
[5] = target: T3, Diacylglycerol O-acyltransferase 1 (Mus musculus, UniProt Q9Z2A7)
T3 sequence (Q9Z2A7 whole entry): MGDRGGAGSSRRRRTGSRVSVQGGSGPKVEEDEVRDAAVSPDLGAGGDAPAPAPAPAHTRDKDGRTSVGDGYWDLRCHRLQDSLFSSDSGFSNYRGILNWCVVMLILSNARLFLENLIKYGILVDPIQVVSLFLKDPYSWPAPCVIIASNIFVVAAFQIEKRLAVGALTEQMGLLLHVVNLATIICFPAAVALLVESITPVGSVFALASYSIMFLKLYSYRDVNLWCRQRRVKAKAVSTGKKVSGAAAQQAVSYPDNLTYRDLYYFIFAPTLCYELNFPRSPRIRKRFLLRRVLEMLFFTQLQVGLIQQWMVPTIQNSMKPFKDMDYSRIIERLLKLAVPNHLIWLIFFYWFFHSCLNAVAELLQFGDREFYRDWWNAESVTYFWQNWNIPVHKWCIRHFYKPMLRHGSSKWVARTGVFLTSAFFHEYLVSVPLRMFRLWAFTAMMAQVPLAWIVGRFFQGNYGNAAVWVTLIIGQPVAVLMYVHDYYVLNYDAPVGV
Description: Inhibition of mouse DGAT1

Mus musculus = assay: Reduction in lipid excursion in mouse at 10 mg/kg, po QD measured at 18 hrs post dose by lipid tolerance test relative to control; type: functional; set-up: scale not given: the % may be the effect or the level left

FC(F)(F)c1ccc2[nH]c(-c3ccc(-c4ccc(N5CCOCC5)nc4)cc3)nc2c1
pIC50 [1]: 7.19 | pKi [2]: 4.88 | pIC50 [3]: 5.88

O=C(O)C1CC(Nc2ccc(-c3ccc(-c4nc5cc(Cl)ccc5[nH]4)cn3)cn2)C1 (racemic)
logD [4]: 1.29 | pIC50 [1]: 7.66 | pIC50 [5]: 6.61 | pKi [2]: < 4.22 | pIC50 [3]: < 5.70

N#Cc1ccc(-c2ccc(-c3nc4cc(C(F)(F)F)ccc4[nH]3)cc2)cc1
pIC50 [1]: 7.01 | pKi [2]: 6.21 | pIC50 [3]: 5.85

N#Cc1ccc2[nH]c(-c3ccc(N4CCC(O[C@H]5CC[C@H](CC(=O)O)CC5)CC4)nc3)nc2c1
pIC50 [5]: 6.28 | pKi [2]: 5.52 | pIC50 [3]: < 5.00

O=C(O)C[C@H]1CC[C@@H](Oc2ccc(-c3ccc(-c4nc5cc(Cl)ccc5[nH]4)cn3)cn2)CC1
pIC50 [5]: 8.77 | pKi [2]: 5.52

Oc1ccc(-c2ccc(-c3nc4cc(C(F)(F)F)ccc4[nH]3)cc2)cc1
pIC50 [1]: 6.35 | pKi [2]: 5.78

O=C(O)C[C@H]1CC[C@H](OC2CCN(c3ccc(-c4nc5cc(C(F)(F)F)cnc5[nH]4)cn3)CC2)CC1
pIC50 [1]: 7.63 | pIC50 [5]: 6.90 | pKi [2]: 4.92 | pIC50 [3]: < 5.00

FC(F)(F)c1ccc2[nH]c(-c3ccc(-c4cccnc4)cc3)nc2c1
pIC50 [1]: 6.90 | pKi [2]: 5.85

O=C(O)C[C@H]1CC[C@@H](Oc2ccc(-c3ccc(-c4nc5c(F)cc(F)cc5[nH]4)cn3)cn2)CC1
pIC50 [5]: 8.64 | pKi [2]: 5.42

O=C(O)C[C@H]1CC[C@H](c2ccc(-c3ccc(-c4nc5cc(C(F)(F)F)ccc5[nH]4)cc3)cc2)CC1
logD [4]: 2.31 | pIC50 [5]: 8.74

O=C(O)C[C@H]1CC[C@H](c2ccc(-c3ccc(-c4nc5cc(Cl)ccc5[nH]4)cc3)cc2)CC1
logD [4]: 2.08

Cc1ccc2[nH]c(-c3ccc(N4CCC(O[C@H]5CC[C@H](CC(=O)O)CC5)CC4)nc3)nc2n1
pIC50 [5]: 5.72

N#Cc1ccc(-c2ccc(-c3nc4cc(C(F)(F)F)ccc4[nH]3)cc2)cn1
pIC50 [1]: 7.42 | pKi [2]: < 4.22 | pIC50 [3]: < 5.00

O=C(O)C[C@H]1CC[C@H](OC2CCN(c3ccc(-c4nc5cc(Cl)cnc5[nH]4)cn3)CC2)CC1
pIC50 [5]: 6.57 | pIC50 [3]: < 5.00

FC(F)(F)c1ccc2[nH]c(-c3ccc(-c4ccccc4)cc3)nc2c1
pIC50 [1]: 5.88 | pKi [2]: 5.64

CN1CCN(c2ccc(-c3ccc(-c4nc5cc(C(F)(F)F)ccc5[nH]4)cc3)cc2)CC1
pIC50 [1]: 7.18 | pKi [2]: 6.09 | pIC50 [3]: 5.87

CC(C)(COc1ccc(-c2ccc(-c3nc4cc(Cl)ccc4[nH]3)cn2)cn1)C(=O)O
logD [4]: 1.44 | pIC50 [1]: 9.15 | pIC50 [5]: 8.85 | pKi [2]: 5.09 | pIC50 [3]: 6.01

CN1CCN(c2ccc(-c3ccc(-c4nc5cc(C(F)(F)F)ccc5[nH]4)cc3)cn2)CC1
pIC50 [1]: 7.15 | pKi [2]: 6.37 | pIC50 [3]: 5.57

O=C(O)C[C@H]1CC[C@@H](Oc2ccc(-c3ccc(-c4nc5cc(Cl)cnc5[nH]4)cn3)cn2)CC1
pIC50 [1]: 8.49 | pIC50 [5]: 8.23 | pKi [2]: 5.07 | pIC50 [3]: 5.79

O=C(O)c1ccc(CNc2ccc(-c3ccc(-c4nc5cc(Cl)ccc5[nH]4)cn3)cn2)cc1
logD [4]: 1.3 | pIC50 [1]: 8.02 | pIC50 [5]: 7.08 | pKi [2]: 4.92 | pIC50 [3]: < 5.00

O=C(O)[C@H]1CC[C@@H](Oc2ccc(-c3ccc(-c4nc5cc(Cl)ccc5[nH]4)cn3)cn2)CC1
pIC50 [1]: 8.82 | pIC50 [5]: 8.55 | Activity (Mus musculus): 144% | pKi [2]: 5.27 | pIC50 [3]: < 5.70

O=C(O)C[C@H]1CC[C@@H](Oc2ccc(-c3ccc(-c4nc5cc(F)c(F)cc5[nH]4)cn3)cn2)CC1
pIC50 [1]: 8.77 | pIC50 [5]: 8.59 | pKi [2]: 4.72 | pIC50 [3]: < 5.70

COc1ccc2[nH]c(-c3ccc(N4CCC(O[C@H]5CC[C@H](CC(=O)O)CC5)CC4)nc3)nc2n1
pIC50 [5]: 7.11 | pKi [2]: 4.69 | pIC50 [3]: < 5.00

O=C(O)C[C@H]1CC[C@@H](Oc2ccc(-c3ccc(-c4nc5cc(C(F)(F)F)ccc5[nH]4)cn3)cn2)CC1
pIC50 [5]: 8.82 | pKi [2]: 5.39
